# Measurements taken from ChEMBL document CHEMBL4373747 (ACS Med Chem Lett, 2020).
# Legend:
# [1] = target: Histone deacetylase 3 (Homo sapiens, UniProt O15379); assay: Inhibition of recombinant full length human HDAC3 expressed in baculovirus infected Sf9 cells using FAM-RHKK-Ac as substrate incubated for 3 hrs by electrophoretic mobility shift assay
# [2] = tested on: MV4-11; assay: Cytotoxicity against human MV4-11 cells assessed as reduction in cell viability incubated for 72 hrs by cell-titer blue assay; type: functional, cell-based; conditions: MV4-11, 72 h
# [3] = tested on: MDA-MB-231; assay: Cytotoxicity against human MDA-MB-231 cells assessed as reduction in cell viability incubated for 72 hrs by cell-titer blue assay; type: functional, cell-based; conditions: MDA-MB-231, 72 h
# [4] = Cytotoxicity against human MRC9 cells assessed as reduction in cell viability incubated for 72 hrs by cell-titer blue assay; type: cell-based; conditions: MRC9, 72 h
# [5] = tested on: MDA-MB-468; assay: Cytotoxicity against human MDA-MB-468 cells assessed as reduction in cell viability incubated for 72 hrs by cell-titer blue assay; type: functional, cell-based; conditions: MDA-MB-468, 72 h
# [6] = target: T1, Protein deacetylase HDAC6 (Homo sapiens, UniProt Q9UBN7); assay: Inhibition of recombinant full length human HDAC6 expressed in baculovirus infected Sf9 cells using FAM-RHKK-Ac as substrate incubated for 5 hrs by electrophoretic mobility shift assay
# T1 sequence (Q9UBN7 whole entry): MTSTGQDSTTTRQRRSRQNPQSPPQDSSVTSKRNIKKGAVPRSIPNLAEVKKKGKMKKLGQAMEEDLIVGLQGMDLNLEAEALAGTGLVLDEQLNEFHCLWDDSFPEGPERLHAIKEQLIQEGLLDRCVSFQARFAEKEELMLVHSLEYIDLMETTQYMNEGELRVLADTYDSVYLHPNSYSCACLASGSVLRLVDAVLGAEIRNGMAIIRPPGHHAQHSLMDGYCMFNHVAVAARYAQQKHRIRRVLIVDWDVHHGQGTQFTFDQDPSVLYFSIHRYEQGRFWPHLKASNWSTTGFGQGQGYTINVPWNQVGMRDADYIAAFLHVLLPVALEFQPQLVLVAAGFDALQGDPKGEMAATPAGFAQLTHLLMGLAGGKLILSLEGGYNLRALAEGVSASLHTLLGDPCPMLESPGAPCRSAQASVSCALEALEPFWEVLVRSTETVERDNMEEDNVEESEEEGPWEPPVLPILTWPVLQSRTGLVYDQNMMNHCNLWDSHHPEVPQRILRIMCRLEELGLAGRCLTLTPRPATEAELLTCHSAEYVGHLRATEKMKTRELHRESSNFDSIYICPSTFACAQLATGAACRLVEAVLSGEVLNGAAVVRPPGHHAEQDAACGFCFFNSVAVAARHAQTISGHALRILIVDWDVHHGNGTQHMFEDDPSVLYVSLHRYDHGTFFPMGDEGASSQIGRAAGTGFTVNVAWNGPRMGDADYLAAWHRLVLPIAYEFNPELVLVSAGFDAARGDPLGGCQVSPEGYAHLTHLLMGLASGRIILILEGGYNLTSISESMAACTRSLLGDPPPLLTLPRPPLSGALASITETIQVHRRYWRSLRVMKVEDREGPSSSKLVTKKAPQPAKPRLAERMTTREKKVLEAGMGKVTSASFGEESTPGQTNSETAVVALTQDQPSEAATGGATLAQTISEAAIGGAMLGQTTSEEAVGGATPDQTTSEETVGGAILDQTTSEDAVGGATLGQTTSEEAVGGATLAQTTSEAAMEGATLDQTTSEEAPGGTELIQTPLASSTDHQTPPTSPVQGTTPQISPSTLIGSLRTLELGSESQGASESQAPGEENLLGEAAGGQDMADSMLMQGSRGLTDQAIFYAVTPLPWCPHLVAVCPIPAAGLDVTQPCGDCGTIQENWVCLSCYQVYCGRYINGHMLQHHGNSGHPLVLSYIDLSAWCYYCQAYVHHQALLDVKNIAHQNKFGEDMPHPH
# [7] = target: T2, Histone deacetylase 8 (Homo sapiens, UniProt Q9BY41); assay: Inhibition of recombinant full length human HDAC8 expressed in baculovirus infected Sf9 cells using FAM-RHKK-TFAc as substrate incubated for 3 hrs by electrophoretic mobility shift assay
# T2 sequence (Q9BY41 whole entry): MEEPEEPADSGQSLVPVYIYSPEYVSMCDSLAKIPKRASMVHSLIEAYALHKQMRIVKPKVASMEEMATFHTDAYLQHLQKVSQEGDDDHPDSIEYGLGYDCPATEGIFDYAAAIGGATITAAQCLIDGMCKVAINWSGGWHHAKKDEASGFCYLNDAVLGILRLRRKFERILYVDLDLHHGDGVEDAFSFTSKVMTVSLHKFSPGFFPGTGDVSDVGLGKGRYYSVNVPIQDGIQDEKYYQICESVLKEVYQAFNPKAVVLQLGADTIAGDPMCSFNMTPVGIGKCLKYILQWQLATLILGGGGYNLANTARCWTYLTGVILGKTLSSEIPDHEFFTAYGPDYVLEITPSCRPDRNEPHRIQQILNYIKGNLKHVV
# [8] = tested on: MOLM-13; assay: Cytotoxicity against human MOLM13 cells assessed as reduction in cell viability incubated for 72 hrs by cell-titer blue assay; type: functional, cell-based; conditions: MOLM-13, 72 h
# [9] = target: T1, Protein deacetylase HDAC6; assay: Inhibition of recombinant full length human HDAC6 expressed in baculovirus infected Sf9 cells assessed as inhibitory constant using FAM-RHKK-Ac as substrate incubated for 5 hrs by electrophoretic mobility shift assay
# [10] = target: T3, Histone deacetylase 11 (Homo sapiens, UniProt Q96DB2); assay: Inhibition of recombinant full length human HDAC11 expressed in baculovirus infected Sf9 cells using FAM-RHKK-TFAc as substrate incubated for 17 hrs by electrophoretic mobility shift assay
# T3 sequence (Q96DB2 whole entry): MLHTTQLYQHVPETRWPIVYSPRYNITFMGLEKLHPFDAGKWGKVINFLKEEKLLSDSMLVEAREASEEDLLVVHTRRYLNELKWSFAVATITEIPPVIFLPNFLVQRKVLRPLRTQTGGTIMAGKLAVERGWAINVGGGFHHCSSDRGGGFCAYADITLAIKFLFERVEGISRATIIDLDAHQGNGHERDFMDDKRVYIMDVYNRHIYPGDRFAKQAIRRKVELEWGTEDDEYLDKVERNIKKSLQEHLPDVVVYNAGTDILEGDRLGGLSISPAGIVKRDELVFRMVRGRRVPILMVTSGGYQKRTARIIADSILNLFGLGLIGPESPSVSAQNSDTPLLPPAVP
# [11] = target: T4, Polyamine deacetylase HDAC10 (Homo sapiens, UniProt Q969S8); assay: Inhibition of recombinant full length human HDAC10 expressed in baculovirus infected Sf9 cells using FAM-RHKK-Ac as substrate incubated for 17 hrs by electrophoretic mobility shift assay
# T4 sequence (Q969S8 whole entry): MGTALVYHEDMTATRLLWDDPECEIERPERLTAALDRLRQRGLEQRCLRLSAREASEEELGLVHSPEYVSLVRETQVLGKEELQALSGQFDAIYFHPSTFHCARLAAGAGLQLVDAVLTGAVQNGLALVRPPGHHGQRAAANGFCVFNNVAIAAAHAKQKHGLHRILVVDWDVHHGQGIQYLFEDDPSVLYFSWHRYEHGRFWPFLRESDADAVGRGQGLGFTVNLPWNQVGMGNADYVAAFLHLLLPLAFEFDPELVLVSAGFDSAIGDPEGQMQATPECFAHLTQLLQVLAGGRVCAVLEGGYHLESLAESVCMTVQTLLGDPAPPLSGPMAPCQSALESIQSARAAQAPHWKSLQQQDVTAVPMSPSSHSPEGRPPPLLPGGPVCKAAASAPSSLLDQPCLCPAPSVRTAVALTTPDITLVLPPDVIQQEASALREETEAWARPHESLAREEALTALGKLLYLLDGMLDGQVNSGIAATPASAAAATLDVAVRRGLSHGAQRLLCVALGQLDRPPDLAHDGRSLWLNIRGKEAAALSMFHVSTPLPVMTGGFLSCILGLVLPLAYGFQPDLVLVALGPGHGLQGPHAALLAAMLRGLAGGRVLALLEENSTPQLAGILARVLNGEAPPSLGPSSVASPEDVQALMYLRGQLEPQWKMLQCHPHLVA
# [12] = target: Histone deacetylase 5 (Homo sapiens, UniProt Q9UQL6); assay: Inhibition of recombinant full length human HDAC5 expressed in baculovirus infected Sf9 cells using FAM-RHKK-TFAc as substrate incubated for 3 hrs by electrophoretic mobility shift assay
# [13] = target: Histone deacetylase 9 (Homo sapiens, UniProt Q9UKV0); assay: Inhibition of recombinant human HDAC9 (604-1066 residues) expressed in baculovirus infected Sf9 cells using FAM-RHKK-TFAc as substrate incubated for 3 hrs by electrophoretic mobility shift assay
# Sequence of Histone deacetylase 9 (Q9UKV0 whole entry, the tested form may be a part): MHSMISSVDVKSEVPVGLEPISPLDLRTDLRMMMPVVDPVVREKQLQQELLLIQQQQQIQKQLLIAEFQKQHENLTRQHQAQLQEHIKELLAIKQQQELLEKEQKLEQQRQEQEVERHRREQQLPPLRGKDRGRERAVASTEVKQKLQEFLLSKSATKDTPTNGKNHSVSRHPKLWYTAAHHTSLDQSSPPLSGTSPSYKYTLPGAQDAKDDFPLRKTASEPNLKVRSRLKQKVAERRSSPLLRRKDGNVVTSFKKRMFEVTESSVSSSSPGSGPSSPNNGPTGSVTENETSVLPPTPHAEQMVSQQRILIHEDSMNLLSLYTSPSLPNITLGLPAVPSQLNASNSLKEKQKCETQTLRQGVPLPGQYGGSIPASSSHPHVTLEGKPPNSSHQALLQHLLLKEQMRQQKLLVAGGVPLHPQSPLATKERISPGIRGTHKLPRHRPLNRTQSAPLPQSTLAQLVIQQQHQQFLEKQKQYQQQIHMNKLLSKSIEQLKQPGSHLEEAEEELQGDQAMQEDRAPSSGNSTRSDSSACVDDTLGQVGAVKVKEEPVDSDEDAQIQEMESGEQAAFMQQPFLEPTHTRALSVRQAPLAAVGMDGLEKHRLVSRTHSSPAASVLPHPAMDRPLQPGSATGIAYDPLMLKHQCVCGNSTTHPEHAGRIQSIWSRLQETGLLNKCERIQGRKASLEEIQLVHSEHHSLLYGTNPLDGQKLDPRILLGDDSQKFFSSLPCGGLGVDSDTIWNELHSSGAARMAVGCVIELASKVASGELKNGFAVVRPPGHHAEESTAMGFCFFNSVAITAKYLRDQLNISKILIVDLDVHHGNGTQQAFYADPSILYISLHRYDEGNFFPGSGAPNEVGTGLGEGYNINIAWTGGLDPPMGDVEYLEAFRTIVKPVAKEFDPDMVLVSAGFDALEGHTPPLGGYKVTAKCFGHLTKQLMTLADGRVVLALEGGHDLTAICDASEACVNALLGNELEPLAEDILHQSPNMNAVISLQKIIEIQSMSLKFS
# Sequence of Histone deacetylase 3 (O15379 whole entry): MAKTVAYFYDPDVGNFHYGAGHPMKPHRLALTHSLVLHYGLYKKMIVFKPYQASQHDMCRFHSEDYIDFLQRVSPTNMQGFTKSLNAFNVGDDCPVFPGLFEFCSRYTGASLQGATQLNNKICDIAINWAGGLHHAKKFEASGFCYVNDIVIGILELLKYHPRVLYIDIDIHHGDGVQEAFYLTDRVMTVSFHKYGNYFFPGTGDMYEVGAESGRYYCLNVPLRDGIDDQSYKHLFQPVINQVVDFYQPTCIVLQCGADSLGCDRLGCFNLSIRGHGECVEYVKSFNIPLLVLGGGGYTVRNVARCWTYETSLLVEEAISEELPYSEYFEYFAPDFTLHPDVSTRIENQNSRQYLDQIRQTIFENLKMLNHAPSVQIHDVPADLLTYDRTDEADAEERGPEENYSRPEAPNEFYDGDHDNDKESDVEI
# Sequence of Histone deacetylase 5 (Q9UQL6 whole entry, the tested form may be a part): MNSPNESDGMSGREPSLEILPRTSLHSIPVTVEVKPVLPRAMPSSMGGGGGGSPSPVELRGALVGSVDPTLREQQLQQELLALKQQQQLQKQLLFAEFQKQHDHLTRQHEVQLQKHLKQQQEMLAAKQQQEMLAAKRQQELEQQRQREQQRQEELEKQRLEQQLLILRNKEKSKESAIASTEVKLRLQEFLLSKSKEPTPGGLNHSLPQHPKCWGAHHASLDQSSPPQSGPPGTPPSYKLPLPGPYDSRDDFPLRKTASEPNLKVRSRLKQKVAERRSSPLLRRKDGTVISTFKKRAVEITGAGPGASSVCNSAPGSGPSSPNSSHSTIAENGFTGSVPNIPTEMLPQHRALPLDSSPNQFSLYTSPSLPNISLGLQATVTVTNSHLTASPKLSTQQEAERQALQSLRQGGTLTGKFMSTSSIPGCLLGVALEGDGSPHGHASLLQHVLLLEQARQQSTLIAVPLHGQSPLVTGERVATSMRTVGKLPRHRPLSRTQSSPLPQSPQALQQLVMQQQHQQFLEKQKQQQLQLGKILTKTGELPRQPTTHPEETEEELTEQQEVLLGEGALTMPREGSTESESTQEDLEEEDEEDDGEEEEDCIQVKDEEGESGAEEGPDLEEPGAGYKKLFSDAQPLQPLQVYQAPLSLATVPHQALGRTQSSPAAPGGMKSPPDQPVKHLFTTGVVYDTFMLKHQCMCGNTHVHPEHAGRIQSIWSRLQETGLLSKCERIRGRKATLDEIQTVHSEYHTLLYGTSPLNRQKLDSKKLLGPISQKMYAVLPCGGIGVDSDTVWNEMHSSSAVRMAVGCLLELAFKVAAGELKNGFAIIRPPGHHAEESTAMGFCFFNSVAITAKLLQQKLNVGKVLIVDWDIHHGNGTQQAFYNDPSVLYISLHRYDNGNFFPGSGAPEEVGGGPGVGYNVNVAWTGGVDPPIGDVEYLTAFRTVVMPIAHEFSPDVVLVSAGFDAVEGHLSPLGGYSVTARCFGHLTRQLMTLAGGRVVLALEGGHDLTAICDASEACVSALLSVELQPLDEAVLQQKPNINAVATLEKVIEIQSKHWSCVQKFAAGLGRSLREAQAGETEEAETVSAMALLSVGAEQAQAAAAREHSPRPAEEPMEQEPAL
Structure (SMILES),IC50 [1] [nM],IC50 [2] [nM],IC50 [3] [nM],IC50 [4] [nM],IC50 [5] [nM],IC50 [6] [nM],IC50 [7] [nM],IC50 [8] [nM],Ki [9] [nM],IC50 [10] [nM],IC50 [11] [nM],IC50 [12] [nM],IC50 [13] [nM]
CN(CC(=O)N(Cc1ccc(C(C)(C)C)cc1)c1ccc(C(=O)NO)cc1)S(=O)(=O)c1ccc(F)cc1,492,3410,> 25000,11800,> 12500,55.2,37.9,5460,768,697,,,
CN(C(=O)CN(C)S(=O)(=O)c1ccc(F)cc1)c1ccc(C(=O)NO)cc1,708,14600,,,,117,573,24800,793,> 1000,,,
CC(=O)N(Cc1ccc(C(C)(C)C)cc1)c1ccc(C(=O)NO)cc1,276,4240,> 25000,,> 25000,71.3,85.4,10600,199,> 1000,,,
Cn1cc(CNCC2CCN(c3ncc(C(=O)NO)cn3)CC2)c2ccccc21 [QUISINOSTAT],,,,,,,,,,,1.96,5.95,6.7
CC(C)(C)OC(=O)N(Cc1ccc(C(C)(C)C)cc1)c1ccc(C(=O)NO)cc1,374,3120,> 25000,9490,> 25000,28.2,635,10300,201,837,,,
CC(C)(C)c1ccc(CN(C(=O)CN(Cc2c(F)c(F)c(F)c(F)c2F)S(C)(=O)=O)c2ccc(C(=O)NO)cc2)cc1,213,1620,> 12500,> 25000,> 25000,27.7,133,2980,1090,> 1000,,,
